Experimental findings from US7108996B2, “Method for increasing luminescence assay sensitivity” (Promega Corporation, priority 2000, dated 2006) are described below.

For series [1], the system named is coelenterazine autoluminescence in Human embryonic kidney cells (293). Description: Whole cell assay: reduction of coelenterazine autoluminescence in the presence of living cells. Type of series: cell-based. As to the method:
(§1) To determine the effect of organic compounds on cell viability and to determine the ability of such compounds to reduce autoluminescence in the presence of living cells, the following experiment was performed. Human embryonic kidney cells (293, ATCC, Rockville, Md.) were used to generate a cell line that stably expresses the firefly luciferase (Luc+) gene. This stable cell line was made using the pCl-neo vector (Promega Corporation, Madison Wis., USA) and inserting the Luc+ gene between the Xba I and Sal I sites. The stable cell line was prepared using standard methods and the transformed cells were grown in wells of a microtiter plate in the presence of DMEM medium containing 10% FBS and 0.15 mg/ml G418. For experimental purposes, duplicate plates of cells were prepared using 96 well microtiter plates. One plate was used to examine viability, and the other plate was used to examine the effect on autoluminescence.
To determine the ability of the organic compounds to reduce autoluminescence, the media was removed from the cells and replaced with media containing the compounds at various concentrations and coelenterazine. Since there is no Renilla luciferase enzyme being expressed in these cells, the only luminescence observed is autoluminescence. The level of autoluminescence was compared to controls containing only coelenterazine to identify the effect of the compounds on reducing autoluminescence.
(§2) Half of the microtiter plate contained no cells. To these wells, the same reagents were added as to the cell counterpart to measure cell-independent luminescence (i.e. background luminescence). The reagents (media with luciferin or coelenterazine, with or without compounds at various concentrations) were prepared as follows:
b) Reagent to Examine Reduction in Autoluminescence
Coelenterazine substrate was initially dissolved in Stop & Glob Reagent Solvent (both available from Promega Corporation, Madison Wis., USA) as a 30 mM stock. This coelenterazine stock was used to make DMEM media containing 0.6 mM coelenterazine as the final concentration. DMEM/coelenterazine reagents were made in a similar fashion as the DMEM/luciferin reagents described in a).
(§3) The cell culture medium was removed from the cells and replaced with medium containing substrate (+/−compound) and luminescence was measured immediately. […] Fold reduction in autoluminescence was calculated by dividing the background-subtracted autoluminescence in minus compound controls by the background-subtracted autoluminescence containing the compounds.

Series [2] deals with Human embryonic kidney cells (293) stably expressing firefly luciferase (Luc+). Description: Whole cell assay: firefly luminescence as indicator of cell viability. In kind it is cell-based. How it is done: as §1
To examine the effect of the organic compounds in cell viability, the media was removed from the cells and replaced with media containing the substrate for firefly luciferase, beetle luciferin, and the organic compounds at various concentrations. Passive diffusion of luciferin across the cell membrane together with the ATP oxygen and luciferase enzyme already contained within the cell, results in light production. Whereas, in compromised or damaged cells, intracellular ATP concentration is rapidly depleted, decreasing the firefly luminescence. The level of luminescence was compared to controls containing only luciferin to identify the effect of the compounds, if any, on light output as an indicator of cell viability.
as §2
a) Reagent to Examine Firefly Luminescence (Cell Viability)
Luciferin substrate available from Promega Corporation, Madison Wis., USA was initially prepared in 10 mM sodium phosphate buffer, pH 7.4 as a 100 mM stock. This luciferin stock was used to make DMEM solution containing a final concentration of 2 mM luciferin.
Thiourea and 1-allyl-3-(2-hydroxyethyl)-2-thiourea were dissolved directly in this solution (DMEM/luciferin) to a final concentration of 30 mM. These were subsequently diluted to contain final compound concentrations of 10 mM and 1 mM.
Another compound 6-aza-thio-thymidine was dissolved in DMSO as a 750 mM stock. The 6-aza-thio-thymidine was subsequently added to the DMEM/luciferin reagent at a final concentration of 30 mM, 10 mM, and 1 mM, while maintaining a final DMSO concentration of 4%. A DMEM/luciferin reagent was used as the control with which to compare the effect of the compound and was also made to contain a final DMSO concentration of 4%.
Since it is believed that DMSO may help organic molecules permeat cell membranes, an additional control was included that consisted of thiourea (10 mM) reconstituted in DMSO (4%).
as §3

The procedure of series [3]: (§4) The enzymatic luminescence measurement may have an autoluminescence component.
(§5) Format B Experiments were performed in a reaction volume of 150 μl Matthew's Buffer (referred to herein as MB) as either a standard MB composition or a modified MB composition as described below. As with Format A, reactions with and without Renilla luciferase were carried out to observe the effect of the organic compounds on assay sensitivity.
(§6) 1× Matthew's buffer standard composition consists of:
(§7) In order to observe the autoluminescence enhanced only by the detergent, for the majority of the experiments, BSA was replaced with porcine gelatin as the enzyme stabilizer at a final concentration of 0.15 mg/ml or 0.45 mg/ml. Taking all the variants into account the format can be sub-divided in 4 different versions:
(§8) Reactions were carried out in triplicate by adding each of the 50 μl portions to microtiter plate wells and mixing. The resulting relative light units generated per well was measured immediately using a Dynex MLX Microtiter plate luminometer or a Wallac 1450 MicroBeta Trilux plate luminometer (1 second/well) or alternatively, the plate was incubated at 22° C. and read after 5 minutes in the same fashion.
(§9) a) fold-decrease in non-enzymatic autoluminescence measurement in the presence of the compound when compared to the absence of the compound and, […]

The procedure of series [4]:
as §4
(§10) Format A Assays were performed in the presence of Steady Glo® reagent (SG) and Stop & Glo® reagent (S+G), (Promega Corporation, Madison Wis.). A total reaction volume of 150 μl consisted of:
(§11) 50 μl F-12 (Ham) media+1 mg/ml gelatin (with or without enzyme^1)
(§12) 50 μl S+G (containing substrate^2)
(§13) 50 μl SG ^1 Renilla luciferase enzyme was added to F-12 cell culture media containing 1% gelatin, to a concentration of approximately 2.5 ng/50 μl media. Reactions in the absence of Renilla luciferase reveal the effect of the compound on autoluminescence while reactions in the presence of enzyme reveal the effect of the compound on Renilla luciferase-catalyzed luminescence.^2 The S+G reagent was prepared as per manufacturer's instructions, with the exception that for these experiments a S+G solvent three times more concentrated than normal was used to resuspend the S+G substrate.
(§14) The compound to be tested was re-suspended in either SG or S+G reagent to a final concentration of SG or S+G of (1×). The compound was added so the final concentration in the 150 μl total volume would be that listed in Table 1 and the reagent was diluted to the a final of 50 μl with water. For controls, the SG or S+G reagent was brought up to 50 μl with water or with the solvent used to dissolve the compound of interest. For example, if a compound needed to be dissolved in DMSO (dimethyl sulphoxide), an equal volume of DMSO was added to the control reaction. Unless otherwise indicated, the compounds were first dissolved in water.
(§15) For each concentration of a particular compound, a mixture containing all of the components in sufficient amounts for four reactions (i.e. 200 μl media, 200 μl SG, 200 μl S+G) was assembled. From this mixture, 150 μl was dispensed into triplicate wells on a 96-well plate. Alternatively, reactions were sometimes assembled in each well of the plate by adding each of the 50 μl portions and mixing. The plate was incubated at 22° C. and after 5 minutes the luminescence was measured using a Dynex plate luminometer (1 second measurement per well).
as §9
The source holds these as a separate data set.

The target in series [5] is T1, Renilla luciferase (Renilla reniformis, UniProt P27652). How it is done:
as §4, §5, §6, §7, §8
(§16) b) effect of the compound on enzymatic luminescence measurement in the presence of the compound when compared to control samples lacking only the compound.

Series [6] has as its target T1, Renilla luciferase. The note with it: Format A. How it is done:
as §4, §10, §11, §12, §13, §14, §15, §16

The mark [7] stands for this setting: 1 mM compound, no additives to media.
The mark [8] stands for this setting: 10 mM compound, no additives to media.
[9] abbreviates: 30 mM compound, no additives to media.
Setting [10] is: 1 mM compound, 4% DMSO in media.
Setting [11] is: 10 mM compound, 4% DMSO in media.
Where [12] appears, read: 30 mM compound, 4% DMSO in media.
Where [13] appears, read: 3 mM compound, Format B3 (gelatin, detergent).
Where [14] appears, read: 3 mM compound, Format B3 with Tween-20.
Setting [15] is: 3 mM compound, Format B4 + 10 mM sodium hydrosulfate.
[16] abbreviates: 10 mM compound, Format B4 (gelatin, no detergent).
[17] abbreviates: 100 mM compound, Format B3 (gelatin, detergent).
The mark [18] stands for this setting: 100 mM compound, Format B4 (gelatin, no detergent).
The mark [19] stands for this setting: 10 mM compound, Format B3 (gelatin, detergent).
Setting [20] is: 30 mM compound, Format B3 (gelatin, detergent).
Where [21] appears, read: 30 mM compound, Format B4 (gelatin, no detergent).

Like-named read-outs stand apart in the source and are kept apart here.

T1 sequence (P27652 whole entry): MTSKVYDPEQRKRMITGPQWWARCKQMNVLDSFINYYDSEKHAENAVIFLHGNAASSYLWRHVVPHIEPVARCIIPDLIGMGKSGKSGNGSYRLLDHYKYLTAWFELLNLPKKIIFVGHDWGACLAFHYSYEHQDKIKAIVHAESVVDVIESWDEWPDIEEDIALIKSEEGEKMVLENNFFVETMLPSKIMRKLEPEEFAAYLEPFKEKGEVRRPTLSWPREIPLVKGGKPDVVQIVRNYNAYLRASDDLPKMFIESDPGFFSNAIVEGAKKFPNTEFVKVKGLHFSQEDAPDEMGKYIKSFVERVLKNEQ

Consider `C=CCNC(=S)NCCO` [1-Allyl-3-(2-hydroxyethyl)-2-thiourea, 1-allyl-3-(2-hydroxyethyl)-2-thiourea], for which the “Fold Decrease in Autoluminescence” value in series [1] (setting [7]) came to 3.5 fold; in series [1] (setting [8]) it was 12 fold; in series [1] (setting [9]), 35 fold. For the same compound, the “Effects on firefly luminescence” value in series [2] (setting [7]) is “No”; in series [2] (setting [8]) it was “Yes, decreases”; in series [2] (setting [9]), “Yes, decreases”.

Take `Cc1nn([C@H]2C[C@H](O)[C@@H](CO)O2)c(=S)[nH]c1=O` [6-aza-thio-thymidine]: the “Fold Decrease in Autoluminescence” value is reported as 3 fold in series [1] (setting [10]), 23 fold in series [1] (setting [11]) and 525 fold in series [1] (setting [12]). In addition, the “Effects on firefly luminescence” value in series [2] (setting [10]) was “No”; in series [2] (setting [11]), “No”; in series [2] (setting [12]), “Yes, decreases”.

`NC(N)=S` [Compound 1]: the Fold decrease autoluminescence in series [3] (setting [13]) was found to be 120 fold; in series [3] (3 mM compound, Format B3 + 10 mM sodium hydrosulfate) it was 21.6 fold; in series [3] (setting [14]) it was 100 fold; in series [3] (3 mM compound, Format B3 with Zwittergent), 6 fold; in series [3] (setting [15]), 2.6 fold; in series [3] (setting [16]) it was 2 fold. Besides, the Fold decrease autoluminescence in series [3] (50 mM compound, Format B3 + 17% DMSO) was found to be 500 fold; in series [3] (50 mM compound, Format B4 + 17% DMSO), 15 fold; in series [3] (setting [17]), 290 fold; in series [3] (setting [18]), 8.5 fold; in series [3] (316 mM compound, Format B2 (BSA, no detergent)), 2 fold; in series [4] (33 mM compound, Format A), 15 fold. In addition, the Effect on luminescence result at Renilla luciferase [5] (setting [13]), at Renilla luciferase [5] (setting [14]), on Renilla luciferase [5] (setting [15]), at Renilla luciferase [5] (setting [17]) and at Renilla luciferase [6] (33 mM compound) was “No effect” in each case.

In the case of `NC(N)=[Se]` [Compound 2], the Fold decrease autoluminescence in series [3] (setting [19]) amounted to 70 fold; in series [4] (10 mM compound, Format A), 100 fold. For the same compound, the Effect on luminescence entry on Renilla luciferase [5] (setting [19]) and on Renilla luciferase [6] (10 mM compound) was “No effect” throughout.

For the compound `CC(N)=S` [Compound 3], the Fold decrease autoluminescence in series [3] (33 mM compound, Format B3 (gelatin, detergent)) is on record as 545 fold; in series [3] (33 mM compound, Format B4 (gelatin, no detergent)) it was 3.4 fold; in series [4] (33 mM compound, Format A) it was 100 fold.

Turning to `C=CCNC(=S)NCCO` [Compound 4], the Fold decrease autoluminescence is 500 fold in series [3] (setting [20]); 3.9 fold in series [3] (setting [21]); 3 fold in series [4] (10 mM compound, Format A). Moreover, the Effect on luminescence result on Renilla luciferase [6] (10 mM compound) is on record as “No effect”.

Consider `S=C(Nc1ccccc1)Nc1cscn1` [Compound 5], for which the Fold decrease autoluminescence in series [4] (10 mM compound, Format A) came out at 115 fold.

Turning to `Cc1c[nH]c(=S)[nH]c1=O` [Compound 6], the Fold decrease autoluminescence in series [3] (32 mM compound, Format B3 + 33% DMSO) is recorded as 660 fold; in series [3] (32 mM compound, Format B4 + 33% DMSO), 120 fold; in series [4] (32 mM compound, Format A + 17% DMSO), 65 fold.

As for `CON=C(C(=O)O)c1csc(N)n1` [Compound 7], the Fold decrease autoluminescence in series [3] (setting [20]) came out at 7 fold; in series [3] (setting [21]), 6.2 fold.

`OC(CS)CC(O)CS` (centres unmarked) [Compound 9]: the Fold decrease autoluminescence amounted to 13 fold in series [3] (setting [20]), 2.5 fold in series [3] (setting [21]) and 3 fold in series [3] (setting [18]). For the same compound, the Effect on luminescence result at Renilla luciferase [5] (setting [21]) is listed as “No effect”.

`CC(=O)NC(CS)C(=O)O` (centres unmarked) [Compound 11]: the Fold decrease autoluminescence in series [3] (setting [20]) stood at 2 fold; in series [3] (setting [21]), 2.3 fold; in series [3] (setting [18]), 3.7 fold. Besides, the Effect on luminescence entry at Renilla luciferase [5] (setting [20]) is “No effect”.

With `N#C[S-].[K+]` [K SCN], the values for the Fold decrease autoluminescence in series [3] (setting [19]) and in series [3] (setting [16]) were 55 fold and 1.7 fold, respectively. Further, the Effect on luminescence result on Renilla luciferase [5] (setting [19]) is recorded as “No effect”.

As for `NC(N)=S` [thiourea], the “Fold Decrease in Autoluminescence” value in series [1] (setting [7]) is on record as 3.4 fold; in series [1] (setting [11]), 12 fold; in series [1] (setting [8]) it was 16 fold; in series [1] (setting [9]), 40 fold. Besides, the “Effects on firefly luminescence” value in series [2] (setting [7]) is listed as “No”; in series [2] (setting [11]), “No”; in series [2] (setting [8]), “No”; in series [2] (setting [9]), “Yes, decreases”.
